For series [1], the system named is Colo-26 cells. In words: Dark and light-induced toxicity toward Colo-26 cells in culture. In kind it is cell-based, murine.
Protocol: In order to compare relative phototoxicity, the core-modified porphyrins of Table 1 were evaluated in culture for dark and light-induced toxicities toward Colo-26 cells, a murine colon carcinoma cell line.
Series [2] can be described thus: Quantum yield for the generation of singlet oxygen. The class given is physicochemical. The following applies: aqueous solution.
The test system of series [3] is R3230AC rat mammary adenocarcinoma cells. The series can be described thus: Phototoxicity toward R3230AC cells in culture. The class given is cell-based. The following applies: 10 μM, 24 h; 570-800 nm light, 0.9 J cm^−2; 24 h post-irradiation. As for the experimental part: Similar results were obtained with R3230AC rat mammary adenocarcinoma cells in vitro. […] Light-treated cells and dark controls were incubated for 24 h and cell survival was determined. The surviving fraction, 24 h post-irradiation, is shown graphically in FIG. 4c.

The test system of series [4] is MCF-7 cells. In words: Photosensitizer uptake in cultured MCF-7 cells by fluorescence. The class given is cell-based. The following applies: 10 μM and 100 μM, 24 h. As for the experimental part: To establish baseline fluorescence, control cells incubated with MEM not containing either photosensitizer were used. […] A time course to determine when the fluorescence approached its maximum was performed for DH-82 and Photofrin®.
To determine the final intracellular concentrations of each sensitizer, cells in 96-well plates were incubated with sensitizer for 24 h. Detection of fluorescence in sensitizer-treated cells was made directly in the wells of the 96-well plate using the appropriate excitation and emission wavelengths.
Photosensitizer uptake experiments are conducted with fluorescent sensitizers. First, cells will be removed from 100-mm dishes by trypsinization (see above) and seeded on 96-well plates at 5×10^4 cells/well in 200 μL of MEM. […] To establish baseline fluorescence, control cells incubated with MEM not containing any photosensitizer are used. […] Fluorescence of the cells is determined using a Spectramax Gemini spectrofluorimeter (Molecular Devices, Sunnyvale, Calif.). Sensitizers will be compared according to the rate at which the fluorescence approached its maximum final emission per 10^5 cells as well as by the final sensitizer concentrations in cells. The fluorescence values calculated for 10^5 cells will be compared to a standard curve of fluorescence obtained from known concentrations of each sensitizer.

Series [5] relates to R3230AC cells. The series can be described thus: Viability of R3230AC cells in the dark and after light. In kind it is cell-based, rat. The following applies: 10^−6 M; 24 h after 0.9 J cm^−2 of 590-750 nm light.
Series [6] has as its system cytochrome c oxidase. The series can be described thus: Whole cell mitochondrial cytochrome c oxidase activity in R3230AC cells. The class given is cell-based, rat. As for the experimental part:
In parallel experiments, mitochondrial cytochrome c oxidase activity was determined after exposure of R3230AC cells to the same porphyrins either in the dark or 24 h after light exposure (FIG. 8b). […] In contrast, MA-99 inhibited whole cell cytochrome c oxidase activity by 60% after a 24-h incubation period in R3230AC cells. […] Cytochrome c oxidase activity in R3230AC cells irradiated in the presence of MA-99 was inhibited by 95%, […] in enzyme activity compared to that obtained from cells incubated with MA-99, but not exposed to light.
Determination of the effects of dyes on intracellular mitochondrial cytochrome c oxidase are performed on cultured R3230AC cells. Cultures are seeded at 1×10^5 cells/well on 12-well plates in 1.0 mL MEM (described above). Twenty-four h later, sensitizers are added at concentrations ranging from 10^−4 to 10^−6 M. Cells are incubated in the dark with the sensitizers in MEM for 24 h in a 37° C. incubator. […] Cytochrome c oxidase is measured as above after cell suspensions are thawed and sonicated on ice after 30 s at 10 s bursts using a Branson probe sonifier set at a power of 2. The whole-cell lysate is added to the cytochrome c reaction mixture and results are expressed as the amount of cytochrome c oxidase activity per 10^5 cells.

The nature of series [7]: Tissue distribution by fluorescence in tumor-bearing BALB/c mice. As for the experimental part: At various times after sensitizer administration, animals were sacrificed and sensitizer levels determined by direct extraction. In tumor-bearing animals (BALB/c mice or female Fischer rats), the concentration of sensitizer was determined by fluorescence spectroscopy where possible. At various time points post-injection of 5 μmol/kg of sensitizer or 90% of the LD10 (whichever is smaller), tissues were removed, weighed, homogenized, and frozen in liquid nitrogen (3-5 animals per time point). The homogenate, after thawing, was taken up in Solvable and the emission from sensitizer was quantified in terms of ng of sensitizer/mg of protein. With non-fluorescent sensitizers, sensitizer content was quantified spectrophotometrically. Distribution ratios were expressed as the uptake or retention of sensitizer in tumor relative to various normal tissues. Intensified digital fluorescence microscopy and/or confocal microscopy on frozen sections of the tumors, which were prepared from samples specified for this purpose, enabled us to assess intratumor sensitizer distributions.

Series [8] has as its system BALB/c mice. In words: Preliminary toxicity, single intravenous injection in BALB/c mice.
Setting [9] is: BALB/c mice with Colo-26 tumors, DH-82 5 mg/kg, MA-99 2.5 mg/kg.

As for `O=C([O-])COc1ccc(-c2c3nc(c(-c4ccc(F)cc4)c4ccc(s4)c(-c4ccc(F)cc4)c4nc(c(-c5ccc(OCC(=O)[O-])cc5)c5ccc2s5)C=C4)C=C3)cc1.[Na+].[Na+]` [MA-99], the concentration giving a half-maximal response (EC50) in series [1] (4 J cm^−2 of 590-800 nm light, read-out: EC50 against Colo-26 cells) was determined as 430 nM. Moreover, the “phototoxicity relative to Photofrin® with laser excitation (FIG. 4a)” value in series [1] (Colo-26 cells, 694 nm dye laser for DH-82 and MA-99, 630 nm dye laser for Photofrin®) was “significantly greater phototoxicity at lower concentrations than Photofrin®”. The “quantum yield for the generation of singlet oxygen φ(^1O2)” value in series [2] was found to be 0.71 ± 0.02. In addition, the “phototoxicity relative to Photofrin® toward R3230AC cells (surviving fraction, FIG. 4c)” value in series [3] is on record as “more phototoxic than Photofrin®”. Besides, in series [4], the “final intracellular concentration relative to that for DH-82” value is listed as “approximately 80%”. Moreover, the “reduction in cell number after light exposure” value in series [5] is recorded as 40%. Further, the “inhibition of whole cell cytochrome c oxidase activity in the dark” value in series [6] (24-h incubation, dark) was 60%. In addition, the “reduction of cytochrome c oxidase activity after irradiation” value in series [6] (24 h after 0.9 J cm^−2 of 590-750 nm light, vs control untreated cells) was found to be 95%. Moreover, the “concentration in tumor 24 h post-injection” value in series [7] (2.5 mg (3.2 μmol)/kg of MA-99, Colo-26 tumors) is 0.65±0.10 μg/mg of protein. The “increase in photosensitizer uptake in tumor relative to compound 6” value in series [7] (24 h post-injection) is “greater than twenty-fold increase”. In series [7] (setting [9]), the “concentration in skin at 1 h post-injection” value was 0.09±0.04 μg/mg of protein and the “concentration in skin at 24 h post-injection” value was 0.01±0.01 μg/mg of protein. Besides, the “concentration in tumor versus other tissues at 24 h post-injection” value in series [7] (liver, kidney, lung, heart, spleen, muscle, skin) is on record as “higher in the tumor than in the other tissues examined”. The “gross abnormalities in organs and tissues after sacrifice” value in series [8] (10 mg/kg i.v., after 90 days) is given as “no gross abnormalities were noted”. Further, the toxicity and morbidity entry in series [8] (10 mg/kg, followed 90 days post-injection, normal vivarium light) is on record as “neither toxicity nor morbidity was observed”.

For the origin of these results see patent US6984656B2, “Core modified porphyrins” (priority 2001, dated 2006).
